In patent US20230029496A1, “AMINO ACID ALTERNATIVE CURING SYSTEM” (THE TEXAS A&M UNIVERSITY SYSTEM, priority 2019, published 2023):
Several values for one entry are separate records, joined by “and”; a condition that tells them apart may be missing. Equal entries are not always repeated. Where two headings read alike, the source gives them in different places. Marks after values point to notes of the source that are not given here.

How the values were obtained:
[1] = system: nitric oxide synthase system; details: beef; for Residual Nitrite, LSMean main effect of Temperature: L-arginine
Description: (§1) Fresh ground meat (beef, pork or poultry) was separated in ˜0.5 Kg batches and mixed with 2% salt and 10% added water. […] Each individual batch was mixed (1 min) in a food processor, removed for temperature and pH analyses and then placed into a jerky extruder tube. Approximately 25 g of sample were extruded into 50 mL centrifuge, then capped and labeled and placed into a controlled water batch and heated to a designated internal endpoint temperature (132, 158, or 165° F.).
(§2) Samples also contained 547 ppm sodium erythorbate, a cure accelerator (Phase I) and without sodium erythorbate (Phase II). Samples were placed into test tubes and heated in a controlled water bath to 132, 158 and 165° F. Samples were held in a 40° F. cooler for seven days then tested for residual nitrite. Residual nitrite was tested after deproteinization for amino acid analysis by HPLC. Determination of nitrite (UV/VIS Spectrophotometric Method) was used to detect any residual nitrite for best results in detecting minute amounts of nitrite. Residual nitrite levels were read in a 96 well plate reader at 540 nm.
(§3) Both phases of the experiment were designed as a factorial (concentration level and endpoint temperature) randomized complete block design with three replications. […] Least squares means were generated and Tukey's HSD used to determine significance at P≤0.05.

NOS system [2] = assay: Residual nitrite in test beef frankfurters (Example 12); details: for Nitrite: 7 days of storage
Description: (§4) The remaining nonmeat ingredients were added (except the antimicrobial) and chopped at 2000 rpm for one minute. Protecta (sodium acetate antimicrobial) was added and the emulsion chopped at 4000 rpm for one minute. The emulsion was evacuated and placed into a vacuum assisted stuffer where each test emulsion was stuffed and twist linked into 22 mm cellulose casings weighing 40 g each. The frankfurter links were hung on smokehouse trucks, placed into a commercial smokehouse and thermally processed to 160° F. (Table 18).
(§5) After thermal processing and chilling (40° F.), the casings were peeled from the frankfurters and were vacuum packaged and stored under refrigerated conditions for residual nitrite and nitrosylation. […] This was done to determine if the L-arginine could the NOS system to generate sufficient NO for cure color development and residual nitrite for antioxidant and antimicrobial effect.

[3] = system: nitric oxide synthase system; details: poultry; for Residual Nitrite, LSMean main effect of Temperature: L-arginine
Description: as §1, §2, §3

NOS system [4] = assay: NO-heme, total heme, nitrosylation in test beef frankfurters (Example 12)
Description: as §4, §5

[5] = Phase I, with 547 ppm sodium erythorbate, 4000 ppm L-arginine, 158° F.
[6] = Phase I, with 547 ppm sodium erythorbate, 4000 ppm L-arginine, 165° F.
[7] = Phase I, with 547 ppm sodium erythorbate, 5000 ppm L-arginine, 132° F.
[8] = Phase I, with 547 ppm sodium erythorbate, 5000 ppm L-arginine, 158° F.
[9] = Phase I, with 547 ppm sodium erythorbate, 5000 ppm L-arginine, 165° F.
[10] = Phase II, without 547 ppm sodium erythorbate, 1000 ppm L-arginine
[11] = Phase II, without 547 ppm sodium erythorbate, 1000 ppm L-arginine, 132° F.
[12] = Phase II, without 547 ppm sodium erythorbate, 1000 ppm L-arginine, 158° F.
[13] = Phase II, without 547 ppm sodium erythorbate, 1000 ppm L-arginine, 165° F.
[14] = Phase II, without 547 ppm sodium erythorbate, 2000 ppm L-arginine
[15] = Phase II, without 547 ppm sodium erythorbate, 2000 ppm L-arginine, 132° F.
[16] = Phase II, without 547 ppm sodium erythorbate, 2000 ppm L-arginine, 158° F.
[17] = Phase II, without 547 ppm sodium erythorbate, 2000 ppm L-arginine, 165° F.
[18] = Phase II, without 547 ppm sodium erythorbate, 3000 ppm L-arginine
[19] = Phase II, without 547 ppm sodium erythorbate, 3000 ppm L-arginine, 132° F.
[20] = Phase II, without 547 ppm sodium erythorbate, 3000 ppm L-arginine, 158° F.
[21] = Phase II, without 547 ppm sodium erythorbate, 3000 ppm L-arginine, 165° F.
[22] = Phase II, without 547 ppm sodium erythorbate, 4000 ppm L-arginine
[23] = Phase II, without 547 ppm sodium erythorbate, 4000 ppm L-arginine, 132° F.
[24] = Phase II, without 547 ppm sodium erythorbate, 4000 ppm L-arginine, 158° F.
[25] = Phase II, without 547 ppm sodium erythorbate, 4000 ppm L-arginine, 165° F.
[26] = Phase II, without 547 ppm sodium erythorbate, 5000 ppm L-arginine
[27] = Phase II, without 547 ppm sodium erythorbate, 5000 ppm L-arginine, 132° F.
[28] = Phase II, without 547 ppm sodium erythorbate, 5000 ppm L-arginine, 158° F.
[29] = Phase II, without 547 ppm sodium erythorbate, 5000 ppm L-arginine, 165° F.
[30] = Phase II, without 547 ppm sodium erythorbate, 132° F.
[31] = Phase II, without 547 ppm sodium erythorbate, 158° F.
[32] = Phase II, without 547 ppm sodium erythorbate, 165° F.
[33] = 1000 ppm L-arginine with 547 ppm sodium erythorbate
[34] = 1000 ppm L-arginine, no cure accelerator
[35] = 5000 ppm L-arginine with 547 ppm sodium erythorbate
[36] = 5000 ppm L-arginine, no cure accelerator

N=C(N)NCCC[C@H](N)C(=O)O [L-arginine]
Residual Nitrite, LSMean Conc × Temp [1, 5]: 83.35 ppm
Residual Nitrite, LSMean Conc × Temp [1, 6]: 52.11 ppm
Residual Nitrite, LSMean Conc × Temp [1, 7]: 57.48 ppm
Residual Nitrite, LSMean Conc × Temp [1, 8]: 48.52 ppm
Residual Nitrite, LSMean Conc × Temp [1, 9]: 38.80 ppm
Residual Nitrite, LSMean main effect of Concentration [1, 10]: 107.03^a ppm and 107.03 ppm
Residual Nitrite, LSMean Conc × Temp [1, 11]: 110.31^a ppm
Residual Nitrite, LSMean Conc × Temp [1, 12]: 117.12^a ppm
Residual Nitrite, LSMean Conc × Temp [1, 13]: 93.64^abc ppm
Residual Nitrite, LSMean main effect of Concentration [1, 14]: 105.44^a ppm and 105.44 ppm
Residual Nitrite, LSMean Conc × Temp [1, 15]: 101.25^abc ppm
Residual Nitrite, LSMean Conc × Temp [1, 16]: 96.50^abc ppm
Residual Nitrite, LSMean Conc × Temp [1, 17]: 118.58^a ppm
Residual Nitrite, LSMean main effect of Concentration [1, 18]: 102.80^a ppm and 102.80 ppm
Residual Nitrite, LSMean Conc × Temp [1, 19]: 107.12^ab ppm
Residual Nitrite, LSMean Conc × Temp [1, 20]: 111.73^a ppm
Residual Nitrite, LSMean Conc × Temp [1, 21]: 89.54^abc ppm
Residual Nitrite, LSMean main effect of Concentration [1, 22]: 90.87^a ppm and 90.87 ppm
Residual Nitrite, LSMean Conc × Temp [1, 23]: 101.77^ab ppm
Residual Nitrite, LSMean Conc × Temp [1, 24]: 113.35^a ppm
Residual Nitrite, LSMean Conc × Temp [1, 25]: 57.51^bcd ppm
Residual Nitrite, LSMean main effect of Concentration [1, 26]: 40.23^b ppm and 40.23 ppm
Residual Nitrite, LSMean Conc × Temp [1, 27]: 52.68^cd ppm
Residual Nitrite, LSMean Conc × Temp [1, 28]: 37.81^d ppm
Residual Nitrite, LSMean Conc × Temp [1, 29]: 30.19^d ppm
Residual Nitrite, LSMean main effect of Temperature [1, 30]: 95.63^a ppm and 95.63 ppm
Residual Nitrite, LSMean main effect of Temperature [1, 31]: 95.30^a ppm and 95.30 ppm
Residual Nitrite, LSMean main effect of Temperature [1, 32]: 77.89^b ppm and 77.89 ppm
Nitrite (NOS system [2]; [33]): 13 ppm and 13.43^bc ppm
Nitrite (NOS system [2]; [34]): 8.02^d ppm
Nitrite (NOS system [2]; [35]): 16 ppm and 15.87^b ppm
Nitrite (NOS system [2]; [36]): 10.64^cd ppm
residual nitrite levels (NOS system [2]; range over L-arginine treated frankfurters after 7 days of storage): 8.02 to 15.87 ppm
Residual Nitrite, LSMean main effect of Concentration ([3]; Phase I, with 547 ppm sodium erythorbate, 1000 ppm L-arginine): 65.44^ab ppm and 65.44 ppm
Residual Nitrite, LSMean Conc × Temp ([3]; Phase I, with 547 ppm sodium erythorbate, 1000 ppm L-arginine, 132° F.): 76.46^ab ppm
Residual Nitrite, LSMean Conc × Temp ([3]; Phase I, with 547 ppm sodium erythorbate, 1000 ppm L-arginine, 158° F.): 60.52^abc ppm
Residual Nitrite, LSMean Conc × Temp ([3]; Phase I, with 547 ppm sodium erythorbate, 1000 ppm L-arginine, 165° F.): 59.36^abc ppm
Residual Nitrite, LSMean main effect of Concentration ([3]; Phase I, with 547 ppm sodium erythorbate, 2000 ppm L-arginine): 72.28^a ppm and 72.28 ppm
Residual Nitrite, LSMean Conc × Temp ([3]; Phase I, with 547 ppm sodium erythorbate, 2000 ppm L-arginine, 132° F.): 63.44^abc ppm
Residual Nitrite, LSMean Conc × Temp ([3]; Phase I, with 547 ppm sodium erythorbate, 2000 ppm L-arginine, 158° F.): 77.50^a ppm
Residual Nitrite, LSMean Conc × Temp ([3]; Phase I, with 547 ppm sodium erythorbate, 2000 ppm L-arginine, 165° F.): 75.91^ab ppm
Residual Nitrite, LSMean main effect of Concentration ([3]; Phase I, with 547 ppm sodium erythorbate, 3000 ppm L-arginine): 54.95^bc ppm and 54.95 ppm
Residual Nitrite, LSMean Conc × Temp ([3]; Phase I, with 547 ppm sodium erythorbate, 3000 ppm L-arginine, 132° F.): 60.08^abc ppm
Residual Nitrite, LSMean Conc × Temp ([3]; Phase I, with 547 ppm sodium erythorbate, 3000 ppm L-arginine, 158° F.): 65.81^abc ppm
Residual Nitrite, LSMean Conc × Temp ([3]; Phase I, with 547 ppm sodium erythorbate, 3000 ppm L-arginine, 165° F.): 38.96^cd ppm
Residual Nitrite, LSMean main effect of Concentration ([3]; Phase I, with 547 ppm sodium erythorbate, 4000 ppm L-arginine): 48.16^cd ppm and 48.16 ppm
Residual Nitrite, LSMean Conc × Temp ([3]; Phase I, with 547 ppm sodium erythorbate, 4000 ppm L-arginine, 132° F.): 50.99^a-d ppm
Residual Nitrite, LSMean Conc × Temp [3, 5]: 49.31^a-d ppm
Residual Nitrite, LSMean Conc × Temp [3, 6]: 44.17^cd ppm
Residual Nitrite, LSMean main effect of Concentration ([3]; Phase I, with 547 ppm sodium erythorbate, 5000 ppm L-arginine): 38.14^d ppm and 38.14 ppm
Residual Nitrite, LSMean Conc × Temp [3, 7]: 41.15^cd ppm
Residual Nitrite, LSMean Conc × Temp [3, 8]: 25.07^d ppm
Residual Nitrite, LSMean Conc × Temp [3, 9]: 48.20^bcd ppm
Residual Nitrite, LSMean main effect of Temperature ([3]; Phase I, with 547 ppm sodium erythorbate, 132° F.): 48.43 ppm
Residual Nitrite, LSMean main effect of Temperature ([3]; Phase I, with 547 ppm sodium erythorbate, 158° F.): 55.64 ppm
Residual Nitrite, LSMean main effect of Temperature ([3]; Phase I, with 547 ppm sodium erythorbate, 165° F.): 53.32 ppm
Residual Nitrite, LSMean main effect of Concentration [3, 10]: 65.37^a ppm and 65.44 ppm
Residual Nitrite, LSMean Conc × Temperature [3, 11]: 87.36^a ppm
Residual Nitrite, LSMean Conc × Temperature [3, 12]: 63.54^ab ppm
Residual Nitrite, LSMean Conc × Temperature [3, 13]: 45.19^ab ppm
Residual Nitrite, LSMean main effect of Concentration [3, 14]: 66.58^a ppm and 72.28 ppm
Residual Nitrite, LSMean Conc × Temperature [3, 15]: 65.60^ab ppm
Residual Nitrite, LSMean Conc × Temperature [3, 16]: 61.51^ab ppm
Residual Nitrite, LSMean Conc × Temperature [3, 17]: 72.63^ab ppm
Residual Nitrite, LSMean main effect of Concentration [3, 18]: 57.60^ab ppm and 54.95 ppm
Residual Nitrite, LSMean Conc × Temperature [3, 19]: 53.90^ab ppm
Residual Nitrite, LSMean Conc × Temperature [3, 20]: 73.59^a ppm
Residual Nitrite, LSMean Conc × Temperature [3, 21]: 45.32^ab ppm
Residual Nitrite, LSMean main effect of Concentration [3, 22]: 60.63^ab ppm and 48.16 ppm
Residual Nitrite, LSMean Conc × Temperature [3, 23]: 67.76^ab ppm
Residual Nitrite, LSMean Conc × Temperature [3, 24]: 52.15^ab ppm
Residual Nitrite, LSMean Conc × Temperature [3, 25]: 61.99^ab ppm
Residual Nitrite, LSMean main effect of Concentration [3, 26]: 45.02^b ppm and 38.14 ppm
Residual Nitrite, LSMean Conc × Temperature [3, 27]: 53.87^ab ppm
Residual Nitrite, LSMean Conc × Temperature [3, 28]: 30.83^b ppm
Residual Nitrite, LSMean Conc × Temperature [3, 29]: 50.37^ab ppm
Residual Nitrite, LSMean main effect of Temperature [3, 30]: 65.70 ppm
Residual Nitrite, LSMean main effect of Temperature [3, 31]: 56.32^ ppm and 56.32 ppm
Residual Nitrite, LSMean main effect of Temperature [3, 32]: 55.10 ppm
NO-Heme (NOS system [4]; [33]): 23.59^ab ppm
Nitrosylation (NOS system [4]; [33]): 59.68^a %
Total Heme (NOS system [4]; [33]): 40.35^a ppm
NO-Heme (NOS system [4]; [34]): 17.79^b ppm
Nitrosylation (NOS system [4]; [34]): 43.64^a %
Total Heme (NOS system [4]; [34]): 41.71^a ppm
NO-Heme (NOS system [4]; [35]): 28.32^a ppm
Nitrosylation (NOS system [4]; [35]): 55.59^a %
Total Heme (NOS system [4]; [35]): 51.00^a ppm
NO-Heme (NOS system [4]; [36]): 27.94^a ppm
Nitrosylation (NOS system [4]; [36]): 54.26^a %
Total Heme (NOS system [4]; [36]): 52.81^a ppm
Cure color (nitrosylation) (NOS system [4]; range over L-arginine frankfurters): 43.64 to 59.68%
